Entries after “also recorded” stand apart in the source; their conditions may differ. Marks after values point to notes of the source that are not given here.
Assays:
[1] = test system: MOG-induced CREAE in SJL Mice; assay: MOG-induced CREAE in SJL mice, molecular species comparison of GLA; assay type: in vivo; conditions: for Mean Clinical Score / No. with EAE: 100 μl of test lipid
Source text: γ-Linolenic acid (18:3n -6, GLA) is known to be rapidly converted to longer-chain omega-6 polyunsaturated fatty acids dihomo-γ-linolenic acid and arachidonic acid in vivo (Phylactos et al 1994, Harbige et al 1995, 2000). Therefore to increase the level of membrane long chain omega-6 fatty acids in MS the inventors have reviewed results obtained with several GLA-containing oils:- both fungal (from Mucor javanicus) and plant (Borago officianalis), Evening primrose Oenothera spp. or Blackcurrant Ribes spp) as well as a synthetic tri-GLA oil as GLA delivery systems in an in vivo experimental animal model of MS known as chronic relapsing experimental autoimmune encephalomyelitis (CREAE).
Experimental autoimmune encephalomyelitis (EAE) is an autoimmune inflammatory disease of the CNS, with or without demyelination, inducible in rodents and other mammalian species. […] Chronic relapsing and demyelinating EAE models (CREAE), which are characterised by demyelination and relapse phases, are therefore currently the animal models of choice for MS research (Fazakerley 1997).

EAE [2] = conditions: guinea-pig (Meade et al 1978); cited from earlier work
EAE [3] = conditions: depending on dose (Harbige et al); cited from earlier work
[4] = test system: multiple sclerosis patients; conditions: about 20 g/day; cited from earlier work

CCCCC/C=C\C/C=C\C/C=C\CCCCC(=O)OCC [EE-GLA, Ethyl-Ester-GLA]
Mean Clinical Score [1]: 3.0 ± 0.8 | No. with EAE [1]: 5/6

CCCCC/C=C\C/C=C\C/C=C\CCCCC(=O)OCC(COC(=O)CCCC/C=C\C/C=C\C/C=C\CCCCC)OC(=O)CCCC/C=C\C/C=C\C/C=C\CCCCC [TG-GLA, Triacylglycerol-GLA]
Mean Clinical Score [1]: 1.0 ± 1.3^c | No. with EAE [1]: 3/6 | Protective effect in CREAE (in words) ([1]; compared with borage oil): protective effects similar to that of the borage oil; also recorded: effective at a lower dose level than the borage oil

CCCCC/C=C\C/C=C\CCCCCCCC(=O)O [linoleic acid]
Incidence and severity of EAE (EAE [2]): partially suppresses the incidence and severity of EAE | Protection in acute rat EAE (EAE [3]): dose-dependent action on the clinical severity but did not abolish it | Duration and severity of relapses of multiple sclerosis [4]: relapses were less frequent, less severe and of shorter duration than controls

CCCCC/C=C\C/C=C\C/C=C\CCCCC(=O)O [γ-linolenic acid]
Protection in acute rat EAE (EAE [3]): fully protective

From patent publication US7935729B2, “Use of triglyceride oils containing γ-linolenic acid residues and linoleic acid residues for the treatment of neurodegenerative disease” (BTG International Limited, priority 2003, dated 2011)
